From patent publication US20110009351A1, “SCREENING ASSAY TO IDENTIFY CORRECTORS OF PROTEIN TRAFFICKING DEFECTS” (Traffick Therepeutics Inc., priority 2007, published 2011)
Where a name gives a salt, the structure may show the parent alone. Read-outs that look alike come from different tables or passages of the source.

Columns and labels:
F508del CFTR = molecular target: T1, F508del CFTR (Homo sapiens, UniProt P13569, DEL508-508); assay: YFP fluorescence quenching functional assay (iodide influx), HEK293 cells with F508del CFTR and halide sensitive YFP; type: cell-based; conditions: for remaining activity at 10 µM: read-out: % YFP quench
T1 construct: expressed in transfected cells; host or cells: HEK293 Griptite cells stably expressing F508del CFTR, transiently transfected with halide-sensitive eYFP
Description: In addition to the MDS compounds, the 1120 Prestwick Library compounds were screened. (See FIGS. 7 to 12.) Of the compounds, one qualified as a “strong” hit, 3 as “medium” hits and 57 as “weak” hits. The Z score for the assay was 0.62. The top 50 hits were further tested in a counter screen in which the halide sensitive fluorescent compound (YFP) was expressed inside cells (Table 2). After incubation with the test compounds the ability of the cells to uptake iodide was measure by decreasing YFP fluorescence. In these cells this can only occur if functional CFTR is present at the cell surface (FIG. 7). The hits were also tested for the appearance of the Band C form of CFTR. […] The functionality of the compounds was further studied by the use of Iodide efflux assays for each compound in both BHK and the more physiologically relevant CFBE cells. […] FIG. 10 is a table of results for the 15 hit compounds which summarizes many experiments. […] The results for the best 15 compounds from the Prestwick Library, or “Prestwick 15”, are shown FIGS. 8, 9 and 10.
Strongly adhesive Human […] Kidney cells stably expressing both the human macrophage scavenger receptor (HEK293 Griptite, Invitrogen) and F508del CFTR were plated in 96-well plates and transiently transfected with pcDNA3 plasmid encoding a halide sensitive variant of eYFP. After 24-48 h later cells were exposed to 10 μM test compound in triplicate and incubated for an additional 24 h. Cells were stimulated for 20 minutes with a in a buffer containing 25 μM forskolin, 45 μM IBMX and 50 μM genistein final concentration. The high content screening assay was performed using a Cellomics platform. Iodide was added robotically to a final concentration of 50 mM and the resulting decrease in fluorescence was measured. Images were taken at time 0 and stored for subsequent use when calculating a mask so that only those cells that express YFP at time 0 are measured. The quenching was detected in 15 images taken over the course of an experiment lasting 40 seconds. Each test compound was compared to the following two controls: a negative control without drugs to assess photobleaching that may occur when the same field of view is repeatedly imaged, and a positive control with cells treated with a known potentiator. Results were generated from 150-300 cells per well.

ΔF508-CFTR = ΔF508-CFTR (Homo sapiens, UniProt P13569, DEL508-508); type: cell-based; parameters: which was then ligated into full length pNUT-CFTR linearized using Hpa1 and Pml1; expressed in transfected cells; conditions: for hit in screen (class letter): BHK cells
Description: BHK cells expressing 3HA-tagged ΔF508-CFTR between passages 5-8 were seeded in 96-well plates (Corning half area, black-sided, clear bottom) at 15,000 cells per well and incubated with culture medium for 24 h at 37° C. Each well was then treated with a different test compound (80 compounds per plate) for 24 h at 20 μM final concentration. The remaining 16 wells on each plate were used for control conditions. […] Cells were fixed in a 4% paraformaldehyde solution, washed with PBS, and blocked with PBS containing 5% fetal bovine serum (FBS) for 1 hat 4° C.
Blocking solution was replaced with 15 μl of primary antibody solution containing 1% FBS and mouse monoclonal anti-HA antibody (1:150 dilution, Sigma) in PBS. The plates were sealed and left at 4° C. overnight. After three washes with 100 μl PBS, cells were incubated for 1 h with 15 μl of secondary antibody solution containing 1% FBS and anti-mouse IgG conjugated with FITC (1:100 dilution, Sigma) in PBS. Cells were again washed three times with 100 μl of PBS and analyzed in a plate reader (Analyst™ HT96.384, Biosystems; 488 nm excitation/510 nm emission). […] The mean fluorescence of four untreated wells was used as the background signal when calculating deviations of the 80 compound-treated wells. Hits were then cherry-picked into reservoir plates and re-tested in duplicate using the same assay.
BHK cells expressing ΔF508-CFTR were incubated with test compounds (20 μM) for 24 hours at 37° C. in a 96 well format. Plasma membrane expression of ΔF508-CFTR was then assayed by immunofluorescence using a primary antibody directed against the inserted 3HA tag and a secondary antibody conjugated with a fluorophore (FITC). […] The positive compounds were selected and retested in duplicate to obtain an N of 3. At the re-screening stage, the intrinsic fluorescence of each potential hit was also measured and the fluorescent ones were not considered further.
Screening was performed using BHK cells that stably express F508-CFTR bearing three tandem haemagglutinin-epitope tags (3HA) and linker sequences in the fourth extracellular loop after amino acid 901 (Howard et al., 1995; Carlile et al., 2007; Robert et al., 2008). […] Screening was performed using the Prestwick Chemical Library of 1120 high-purity compounds.

[1] = Prestwick library, initial corrector assay
[2] = Prestwick library, initial corrector assay, standard deviations above untreated controls
[3] = HEK293, 10 μM, 24 h, nc = 100% pc = 69.2
[4] = 10 μM, 24 h, nc = 100% pc = 69.2

T1 sequence (P13569 with tags, fused parts or gaps DEL508-508): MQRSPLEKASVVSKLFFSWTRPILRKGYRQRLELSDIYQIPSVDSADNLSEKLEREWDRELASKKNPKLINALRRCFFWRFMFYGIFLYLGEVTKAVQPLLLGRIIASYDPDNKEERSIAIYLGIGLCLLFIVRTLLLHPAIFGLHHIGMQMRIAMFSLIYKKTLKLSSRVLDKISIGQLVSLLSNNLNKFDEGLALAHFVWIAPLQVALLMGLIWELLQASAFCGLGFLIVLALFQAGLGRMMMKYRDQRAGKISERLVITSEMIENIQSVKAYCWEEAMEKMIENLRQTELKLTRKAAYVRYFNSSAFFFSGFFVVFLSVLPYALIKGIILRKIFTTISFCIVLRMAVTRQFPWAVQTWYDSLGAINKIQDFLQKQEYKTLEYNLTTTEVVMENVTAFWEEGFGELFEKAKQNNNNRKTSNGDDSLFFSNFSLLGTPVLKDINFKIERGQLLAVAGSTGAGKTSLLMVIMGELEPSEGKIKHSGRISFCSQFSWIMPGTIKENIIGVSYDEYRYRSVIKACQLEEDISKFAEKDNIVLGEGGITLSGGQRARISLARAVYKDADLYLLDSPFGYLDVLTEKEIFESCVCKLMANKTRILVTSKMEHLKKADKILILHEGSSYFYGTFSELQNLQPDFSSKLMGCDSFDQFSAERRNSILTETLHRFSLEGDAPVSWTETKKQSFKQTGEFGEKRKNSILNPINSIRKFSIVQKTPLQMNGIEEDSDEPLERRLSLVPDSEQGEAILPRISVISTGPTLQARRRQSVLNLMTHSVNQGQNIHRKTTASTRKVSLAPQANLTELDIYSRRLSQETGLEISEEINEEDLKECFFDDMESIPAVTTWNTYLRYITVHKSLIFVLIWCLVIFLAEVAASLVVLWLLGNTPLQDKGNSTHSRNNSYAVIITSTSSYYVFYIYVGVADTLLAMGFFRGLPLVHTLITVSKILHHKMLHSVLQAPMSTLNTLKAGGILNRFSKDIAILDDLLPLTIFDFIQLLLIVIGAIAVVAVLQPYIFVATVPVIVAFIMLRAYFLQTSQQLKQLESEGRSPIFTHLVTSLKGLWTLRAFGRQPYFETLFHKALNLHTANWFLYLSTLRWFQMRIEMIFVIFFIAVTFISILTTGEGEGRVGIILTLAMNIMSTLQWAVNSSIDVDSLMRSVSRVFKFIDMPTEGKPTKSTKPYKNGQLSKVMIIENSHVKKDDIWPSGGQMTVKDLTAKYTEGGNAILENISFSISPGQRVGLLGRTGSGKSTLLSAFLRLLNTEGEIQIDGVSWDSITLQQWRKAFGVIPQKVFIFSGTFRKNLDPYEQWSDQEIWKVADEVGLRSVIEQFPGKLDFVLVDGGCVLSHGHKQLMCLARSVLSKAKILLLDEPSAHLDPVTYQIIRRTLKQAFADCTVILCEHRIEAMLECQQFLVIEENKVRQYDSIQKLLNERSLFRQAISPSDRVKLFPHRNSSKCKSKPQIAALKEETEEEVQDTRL
ΔF508-CFTR, sequence (P13569 with tags, fused parts or gaps DEL508-508): as above

## CCN1C[C@]2(COC)CC[C@H](O)[C@@]34C5C[C@@H]6[C@@H](OC)C[C@](O)(C(CC23)C14)C5[C@H]6OC(C)=O (stereo partly shown) [Condelphine]
F508del CFTR; HEK293, 24 h
  remaining activity at 10 µM: 97%
ΔF508-CFTR; [1]
  hit in screen (class letter): W (Medium and weak hits were defined as compounds giving a cell fluorescence signal that was between 2 and 3 or 1 and 2 standard deviations, respectively, above untreated control wells)
ΔF508-CFTR; [2]
  hit in screen (score): 1.6

## C[C@]12C[C@H](O)[C@H]3[C@@H](CCC4=CC(=O)CC[C@@]43C)[C@@H]1CC[C@@H]2C(=O)CO [Corticosterone]
F508del CFTR; [3]
  remaining activity at 10 µM: 90%
ΔF508-CFTR; [1]
  hit in screen (class letter): W (Medium and weak hits were defined as compounds giving a cell fluorescence signal that was between 2 and 3 or 1 and 2 standard deviations, respectively, above untreated control wells)
ΔF508-CFTR; [2]
  hit in screen (score): 1.1

## Nc1ccc(S(=O)(=O)c2ccc(N)cc2)cc1 [Dapsone]
F508del CFTR; [3]
  remaining activity at 10 µM: 88%
ΔF508-CFTR; [1]
  hit in screen (class letter): W (Medium and weak hits were defined as compounds giving a cell fluorescence signal that was between 2 and 3 or 1 and 2 standard deviations, respectively, above untreated control wells)
ΔF508-CFTR; [2]
  hit in screen (score): 1.1

## Cc1cc(N)c2ccccc2[n+]1CCCCCCCCCC[n+]1c(C)cc(N)c2ccccc21.[Cl-].[Cl-] [Dequalinlum dichloride]
F508del CFTR; [4]
  % YFP quench: 102%
ΔF508-CFTR; [1]
  hit in screen (class letter): M (Medium and weak hits were defined as compounds giving a cell fluorescence signal that was between 2 and 3 or 1 and 2 standard deviations, respectively, above untreated control wells)
ΔF508-CFTR; [2]
  hit in screen (score): 2.2

## CCN(CC)C(=O)N1CCN(C)CC1 [Diethylcarbamazine citrate]
F508del CFTR; [3]
  remaining activity at 10 µM: 907%
ΔF508-CFTR; [1]
  hit in screen (class letter): W (Medium and weak hits were defined as compounds giving a cell fluorescence signal that was between 2 and 3 or 1 and 2 standard deviations, respectively, above untreated control wells)
ΔF508-CFTR; [2]
  hit in screen (score): 1.2

## CCn1cc(C(=O)O)c(=O)c2cc(F)c(N3CCNCC3)nc21 [Enoxacin]
F508del CFTR; [3]
  remaining activity at 10 µM: 84%
ΔF508-CFTR; [1]
  hit in screen (class letter): W (Medium and weak hits were defined as compounds giving a cell fluorescence signal that was between 2 and 3 or 1 and 2 standard deviations, respectively, above untreated control wells)
ΔF508-CFTR; [2]
  hit in screen (score): 1.0

## C[C@]12CC[C@H](O)C[C@@H]1CC[C@@H]1[C@@H]2CC[C@]2(C)C(=O)CC[C@@H]12 [Epiandrosterone]
F508del CFTR; HEK293, 24 h
  remaining activity at 10 µM: 93%
ΔF508-CFTR
  hit in screen (score): W 1.0
  signal in the trafficking assay: consistently elevated signal

## COc1cc(C)nc(-n2nc(C)cc2OC)n1 [Epirizole]
F508del CFTR; Functional assay, Prestwick compounds, positive tests / tests
  Bart's scores: 0/5
F508del CFTR; [3]
  remaining activity at 10 µM: 115%
ΔF508-CFTR; [1]
  hit in screen (class letter): W (Medium and weak hits were defined as compounds giving a cell fluorescence signal that was between 2 and 3 or 1 and 2 standard deviations, respectively, above untreated control wells)
ΔF508-CFTR; [2]
  hit in screen (score): 1.3

## C[C@]12CC[C@@H]3c4ccc(OS(=O)(=O)O)cc4CC[C@H]3[C@@H]1CCC2=O [Estropipate]
F508del CFTR; [3]
  remaining activity at 10 µM: 83%
ΔF508-CFTR; [1]
  hit in screen (class letter): W (Medium and weak hits were defined as compounds giving a cell fluorescence signal that was between 2 and 3 or 1 and 2 standard deviations, respectively, above untreated control wells)
ΔF508-CFTR; [2]
  hit in screen (score): 1.0

## CC(C(=O)O)c1cccc(Oc2ccccc2)c1 (stereo not shown) [Fenoprofen calcium salt dihydrate]
F508del CFTR; [3]
  remaining activity at 10 µM: 88%
ΔF508-CFTR; [1]
  hit in screen (class letter): W (Medium and weak hits were defined as compounds giving a cell fluorescence signal that was between 2 and 3 or 1 and 2 standard deviations, respectively, above untreated control wells)
ΔF508-CFTR; [2]
  hit in screen (score): 1.1

## CC(C(=O)O)c1ccc(-c2ccccc2)c(F)c1 (stereo not shown) [Flubiprofen]
F508del CFTR; [3]
  remaining activity at 10 µM: 98%
ΔF508-CFTR; [1]
  hit in screen (class letter): W (Medium and weak hits were defined as compounds giving a cell fluorescence signal that was between 2 and 3 or 1 and 2 standard deviations, respectively, above untreated control wells)
ΔF508-CFTR; [2]
  hit in screen (score): 1.0

## C[N+](C)(C)CCCCCC[N+](C)(C)C.O.O.[Br-].[Br-] [Hexamethonium dibromide dihydrate]
F508del CFTR; [4]
  % YFP quench: 98%
ΔF508-CFTR; [1]
  hit in screen (class letter): W (Medium and weak hits were defined as compounds giving a cell fluorescence signal that was between 2 and 3 or 1 and 2 standard deviations, respectively, above untreated control wells)
ΔF508-CFTR; [2]
  hit in screen (score): 1.1

## C[C@]12CCC(=O)C=C1CC[C@@H]1[C@@H]2[C@@H](O)C[C@@]2(C)[C@H]1CC[C@]2(O)C(=O)CO [Hydrocortisone base]
F508del CFTR; [4]
  % YFP quench: 94%
ΔF508-CFTR; [1]
  hit in screen (class letter): W (Medium and weak hits were defined as compounds giving a cell fluorescence signal that was between 2 and 3 or 1 and 2 standard deviations, respectively, above untreated control wells)
ΔF508-CFTR; [2]
  hit in screen (score): 1.1

## c1ccc2c(c1)OCC(C1=NCCN1)O2 (stereo not shown) [Idazoxan hydrochloride]
F508del CFTR; [3]
  remaining activity at 10 µM: 103%
ΔF508-CFTR; [1]
  hit in screen (class letter): W (Medium and weak hits were defined as compounds giving a cell fluorescence signal that was between 2 and 3 or 1 and 2 standard deviations, respectively, above untreated control wells)
ΔF508-CFTR; [2]
  hit in screen (score): 1.0

## COC1=CC(=O)O[C@@H](/C=C/c2ccccc2)C1 [Kawain]
F508del CFTR; [3]
  remaining activity at 10 µM: 111%
ΔF508-CFTR; [1]
  hit in screen (class letter): W (Medium and weak hits were defined as compounds giving a cell fluorescence signal that was between 2 and 3 or 1 and 2 standard deviations, respectively, above untreated control wells)
ΔF508-CFTR; [2]
  hit in screen (score): 1.1

## O=C(O)[C@H](O)[C@@H](O)[C@H](O[C@@H]1O[C@H](CO)[C@H](O)[C@H](O)[C@H]1O)[C@H](O)CO [Lactoblonic acid]
F508del CFTR; [4]
  % YFP quench: 78%
ΔF508-CFTR; [1]
  hit in screen (class letter): W (Medium and weak hits were defined as compounds giving a cell fluorescence signal that was between 2 and 3 or 1 and 2 standard deviations, respectively, above untreated control wells)
ΔF508-CFTR; [2]
  hit in screen (score): 1.2

## Cc1oncc1C(=O)Nc1ccc(C(F)(F)F)cc1 [Leflunomide]
F508del CFTR; [3]
  remaining activity at 10 µM: 107%
ΔF508-CFTR; [1]
  hit in screen (class letter): W (Medium and weak hits were defined as compounds giving a cell fluorescence signal that was between 2 and 3 or 1 and 2 standard deviations, respectively, above untreated control wells)
ΔF508-CFTR; [2]
  hit in screen (score): 1.0

## CN(C)CCOC(=O)COc1ccc(Cl)cc1.Cl [Meciofenoxate hydrochloride]
F508del CFTR; [4]
  % YFP quench: 877%
ΔF508-CFTR; [1]
  hit in screen (class letter): W (Medium and weak hits were defined as compounds giving a cell fluorescence signal that was between 2 and 3 or 1 and 2 standard deviations, respectively, above untreated control wells)
ΔF508-CFTR; [2]
  hit in screen (score): 1.1

## O=C([O-])c1ccccc1-c1c2cc(Br)c(=O)cc-2oc2[c]([Hg+])c([O-])c(Br)cc12.[Na+].[Na+].[OH-] [Merbromin]
F508del CFTR; [4]
  % YFP quench: 107%
ΔF508-CFTR; [1]
  hit in screen (class letter): S (strong hits were initially identified as those compounds giving a cell fluorescence signal that was ≧3 standard deviations (SD) above untreated control wells)
ΔF508-CFTR; [2]
  hit in screen (score): 3.6
